Values after ≈ are worked out from the molar mass of the structure shown. Like-named read-outs stand apart in the source and are kept apart here.
Assays:
[1] = in vitro; settings: simulated gi fluid
Description: Assay incubation conditions included […] simulated gastric fluid (SGF, USP 39 Test Solution; 2 g/L NaCl, 7 mL/L glacial HCl, pH 1.4) containing 1.75 mg/mL Pepsin (3200-4500 U/mg) mixed with 7.5 μL of 10 mg/mL variant (or positive control, NH2-Met-Arg-Phe-Ala-OH, MRFA, CAS#67368-29-0) for a final concentration of 300 μg/ml variant in a microfuge tube. Samples were incubated at 37° C. and analyzed using HPLC or LC-MS for loss of substrate. The percent remaining, elimination rate constant (Ke), and in vitro protein half-lives were calculated. A control of SGF without enzyme was also run and analyzed in the same manner for each variant.

[2] = system: Clostridium difficile UNT103-1; assay: Non-cannulated Syrian hamster C. difficile infection model, oral gavage; type: in vivo, Golden Syrian hamsters; settings: for Percent Survival at Day-22: oral gavage TID Days 2-6, vancomycin 20 mg/kg once a day; for Toxin A level at Day-22: first value of A/B cell; for Toxin A level at Day-22 / Toxin B level at Day-22: limit of detection 0.8; for Mean LOG10 CFU/mL of feces homogenates (cecal spore counts) at Day-22: limit of detection 2.40; for Toxin B level at Day-22: second value of A/B cell
Description: (§1) Following the recovery phase, male Golden Syrian hamsters were inoculated with Clostridium difficile UNT103-1 (VA11, non epidemic (cdtB-, REA group J) Curtis Donskey, Cleveland VA Hospital, Cleveland, Ohio). On Day 1, at 24 hrs after infection, all animals received a single subcutaneous injection of clindamycin (10 mg/kg). Test article formulations were administered three times per day (TID), starting on Day 2 at 18 hours after Clindamycin injection, for 5 consecutive days (Days 2 through 6), and followed until Day 22 to assess recurrence. Vancomycin (positive control) was administered once a day at 20 mg/kg on Days 2 through 6. Cecal spore counts and Toxins A and B were determined as described above

[3] = simulated gi fluid
[4] = system: VRE Enterococcus faecalis; settings: VRE
[5] = system: VRE Enterococcus faecium
[6] = system: Clostridium scindens (ATCC 35704)
[7] = system: Lactobacillus acidophilus (CCUG 4356)
[8] = system: Peptostreptococcus anaerobius (ATCC 27337)
[9] = system: Eggerthella lenta (ATCC 27337)
[10] = system: Heliobacter pylori
[11] = system: Clostridium difficile UNT103-1; assay: Second non-cannulated Syrian hamster C. difficile infection model, oral gavage dose range-finding; type: in vivo, Golden Syrian hamsters
Description: as §1, with “formulated at 3 to 5 different doses” for “formulations”, “above.” for “above”

[12] = FaSSIF + 1% pancreatin + 3 μg/ml trypsin + 3 μg/ml chymotrypsin half-life

Row | Compound | half-life [1] [h] | Percent Survival at Day-22 [2] [%] | Toxin A level at Day-22 ([2]; oral gavage) [ng/mL] | Mean LOG10 CFU/mL of feces homogenates (cecal spore counts) at Day-22 ([2]; oral gavage) [LOG10 CFU/mL] | Toxin B level at Day-22 ([2]; oral gavage) [ng/mL] | half-life [3, 12] [h] | half-life ([3]; FaSSIF only half-life) [h] | MIC VRE ATCC 51575 [4] [µg/mL] | MIC VRE CCUG 47775 [4] [µg/mL] | MIC VRE ATCC 700221 [5] [µg/mL] | MIC C. scindens [6] [µg/mL] | MIC L. acidophilus [7] [µg/mL] | MIC P. anaerobius [8] [µg/mL] | MIC E. lenta [9] [µg/mL] | MIC to H. Pylori without EDTA [10] [µg/mL] | MIC to H. Pylori with 0.05M EDTA [10] [µg/mL] | other results
1 | C=C1NC(=O)[C@H](Cc2c[nH]c3ccccc23)NC(=O)[C@H](NC(=O)[C@H](CCCCN)NC(=O)[C@@H](N)[C@@H](C)CC)CSC[C@@H](C(=O)N[C@H]2C(=O)N3CCC[C@H]3C(=O)NCC(=O)N[C@H](C(=O)N[C@@H](C)C(=O)N[C@@H](C)C(=O)NC(=CC)C(=O)NCC(=O)N[C@@H]3CSC[C@@H]4NC(=O)[C@H](Cc5ccc(O)cc5)NC(=O)[C@@H](CS/C=C\NC4=O)NC(=O)[C@H](CC(N)=O)NC(=O)[C@H](Cc4ccccc4)NC3=O)CS[C@H]2C)NC(=O)[C@H](CC(C)C)NC1=O [F1I R13A] | > 24 | 50 | 147 | 4.67 | 205.5 | > 12 | > 12 | 16 (≈ 7.46 µM) | 16 (≈ 7.46 µM) | 8 (≈ 3.73 µM) | 4 (≈ 1.86 µM) | 0.5 (≈ 0.233 µM) | 1 (≈ 0.466 µM) | 2 (≈ 0.932 µM) | 8 (≈ 3.73 µM) | 8 | 
2 | C=C1NC(=O)[C@H](Cc2c[nH]c3ccccc23)NC(=O)[C@H](NC(=O)[C@H](CCCCN)NC(=O)[C@@H](N)CC(C)C)CSC[C@@H](C(=O)N[C@H]2C(=O)N3CCC[C@H]3C(=O)NCC(=O)N[C@H](C(=O)N[C@@H](C)C(=O)N[C@@H](CC(N)=O)C(=O)NC(=CC)C(=O)NCC(=O)N[C@@H]3CSC[C@@H]4NC(=O)[C@H](Cc5ccc(O)cc5)NC(=O)[C@@H](CS/C=C\NC4=O)NC(=O)[C@H](CC(N)=O)NC(=O)[C@H](Cc4ccccc4)NC3=O)CS[C@H]2C)NC(=O)[C@H](CC(C)C)NC1=O [F1L R13N] | > 24 | 0 | 5477.8 | 7.36 | 2189.1 | > 12 | > 12 | 16 (≈ 7.31 µM) | 16 (≈ 7.31 µM) | 16 (≈ 7.31 µM) | 4 (≈ 1.83 µM) | 0.5 (≈ 0.228 µM) | 0.25 (≈ 0.114 µM) | 0.25 (≈ 0.114 µM) | 8 (≈ 3.66 µM) | 8 | 
3 | C=C1NC(=O)[C@H](Cc2c[nH]c3ccccc23)NC(=O)[C@H](NC(=O)[C@H](CCCCN)NC(=O)[C@@H](N)[C@@H](C)CC)CSC[C@@H](C(=O)N[C@H]2C(=O)N3CCC[C@H]3C(=O)NCC(=O)N[C@H](C(=O)N[C@@H](C)C(=O)N[C@@H](CC(N)=O)C(=O)NC(=CC)C(=O)NCC(=O)N[C@@H]3CSC[C@@H]4NC(=O)[C@H](Cc5ccc(O)cc5)NC(=O)[C@@H](CS/C=C\NC4=O)NC(=O)[C@H](CC(N)=O)NC(=O)[C@H](Cc4ccccc4)NC3=O)CS[C@H]2C)NC(=O)[C@H](CC(C)C)NC1=O [F1I R13N] | > 24 | 66 | 138.1 | 3.64 | 120.2 | > 12 | > 12 | 16 (≈ 7.31 µM) | 16 (≈ 7.31 µM) | 32 (≈ 14.6 µM) | 2 (≈ 0.914 µM) | 0.5 (≈ 0.228 µM) | 0.25 (≈ 0.114 µM) | 0.5 (≈ 0.228 µM) | 8 (≈ 3.66 µM) | 8 | 
4 | C=C1NC(=O)[C@H](Cc2c[nH]c3ccccc23)NC(=O)[C@H](NC(=O)[C@H](CCCCN)NC(=O)[C@@H](N)[C@@H](C)CC)CSC[C@@H](C(=O)N[C@H]2C(=O)N3CCC[C@H]3C(=O)NCC(=O)N[C@H](C(=O)N[C@@H](C)C(=O)N[C@@H](CC(N)=O)C(=O)NC(=CC)C(=O)NCC(=O)N[C@@H]3CSC[C@@H]4NC(=O)[C@H](Cc5ccccc5)NC(=O)[C@@H](CS/C=C\NC4=O)NC(=O)[C@H](CC(N)=O)NC(=O)[C@H](Cc4ccccc4)NC3=O)CS[C@H]2C)NC(=O)[C@H](CC(C)C)NC1=O [F1I R13N Y20F] | > 24 | 83 | 5.1 | 2.65 | 6 | > 12 | > 12 | 8 (≈ 3.68 µM) | 16 (≈ 7.36 µM) | 8 (≈ 3.68 µM) | 2 (≈ 0.921 µM) | 0.5 (≈ 0.23 µM) | 0.125 (≈ 0.0575 µM) | 0.125 (≈ 0.0575 µM) | 8 (≈ 3.68 µM) | 4 | Efficacy compared with Vancomycin-treated animals ([2]; end of the study at Day 22, oral gavage, in words): equal or superior efficacy; Mean LOG10 CFU/mL of feces homogenates (cecal spore counts) at Day-22 ([11]; 6 mg/Kg oral gavage TID): 5.47 LOG10 CFU/mL; Toxin A level at Day-22 ([11]; 6 mg/Kg oral gavage TID): 215.5 ng/mL; Toxin B level at Day-22 ([11]; 6 mg/Kg oral gavage TID): 242.2 ng/mL; Percent Survival at Day-22 ([11]; 6 mg/Kg oral gavage TID Days 2-6): 0%; Mean LOG10 CFU/mL of feces homogenates (cecal spore counts) at Day-22 ([11]; 20 mg/Kg oral gavage TID): 5.37 LOG10 CFU/mL; Toxin A level at Day-22 ([11]; 20 mg/Kg oral gavage TID): 165.5 ng/mL; Toxin B level at Day-22 ([11]; 20 mg/Kg oral gavage TID): 272.3 ng/mL; Percent Survival at Day-22 ([11]; 20 mg/Kg oral gavage TID Days 2-6): 33%; Mean LOG10 CFU/mL of feces homogenates (cecal spore counts) at Day-22 ([11]; 60 mg/Kg oral gavage TID): 3.18 LOG10 CFU/mL; Toxin A level at Day-22 ([11]; 60 mg/Kg oral gavage TID): 47.6 ng/mL; Toxin B level at Day-22 ([11]; 60 mg/Kg oral gavage TID): 108.7 ng/mL; Percent Survival at Day-22 ([11]; 60 mg/Kg oral gavage TID Days 2-6): 83%
5 | C=C1NC(=O)[C@H](Cc2c[nH]c3ccccc23)NC(=O)[C@H](NC(=O)[C@H](CCCCN)NC(=O)[C@@H](N)CC(C)C)CSC[C@@H](C(=O)N[C@H]2C(=O)N3CCC[C@H]3C(=O)NCC(=O)N[C@H](C(=O)N[C@@H](C)C(=O)N[C@@H](C)C(=O)NC(=CC)C(=O)NCC(=O)N[C@@H]3CSC[C@@H]4NC(=O)[C@H](Cc5ccc(O)cc5)NC(=O)[C@@H](CS/C=C\NC4=O)NC(=O)[C@H](CC(N)=O)NC(=O)[C@H](Cc4ccccc4)NC3=O)CS[C@H]2C)NC(=O)[C@H](CC(C)C)NC1=O [F1L R13A] | > 24 | 0 | 4532.5 | 7.28 | 1795.5 | > 12 | > 12 | 32 (≈ 14.9 µM) | 16 (≈ 7.46 µM) | 16 (≈ 7.46 µM) | 4 (≈ 1.86 µM) | 0.5 (≈ 0.233 µM) | 0.5 (≈ 0.233 µM) | 0.5 (≈ 0.233 µM) | 8 (≈ 3.73 µM) | 8 | 
6 | C=C1NC(=O)[C@H](Cc2c[nH]c3ccccc23)NC(=O)[C@H](NC(=O)[C@H](CCCCN)NC(=O)[C@@H](N)[C@@H](C)CC)CSC[C@@H](C(=O)N[C@H]2C(=O)N3CCC[C@H]3C(=O)NCC(=O)N[C@H](C(=O)N[C@@H](C)C(=O)N[C@@H](CC(=O)O)C(=O)NC(=CC)C(=O)NCC(=O)N[C@@H]3CSC[C@@H]4NC(=O)[C@H](Cc5ccc(O)cc5)NC(=O)[C@@H](CS/C=C\NC4=O)NC(=O)[C@H](CC(N)=O)NC(=O)[C@H](Cc4ccccc4)NC3=O)CS[C@H]2C)NC(=O)[C@H](CC(C)C)NC1=O [F1I R13D] | > 24 | 50 | 648.5 | 4.8 | 216.6 | > 12 | > 12 | 32 (≈ 14.6 µM) | 32 (≈ 14.6 µM) | 32 (≈ 14.6 µM) | 8 (≈ 3.65 µM) | 2 (≈ 0.913 µM) | 1 (≈ 0.457 µM) | 2 (≈ 0.913 µM) | 8 (≈ 3.65 µM) | 8 | 

Reference: patent publication US20190315814A1, “LANTIBIOTIC VARIANTS AND USES THEREOF” (priority 2016, published 2019)
